Assay results reported in paper PMC6862662, “In Vitro Evaluation and Docking Studies of 5-oxo-5H-furo[3,2-g]chromene-6-carbaldehyde Derivatives as Potential Anti-Alzheimer’s Agents” (International Journal of Molecular Sciences, 2019).
Structures can show the parent of a compound that is named as a salt.

What was measured:
[1] = DPPH radical scavenging activity assay; conditions: triplicate, preliminary
Method: DPPH radical scavenging activity of compounds 2b, 2f, 3b, 3d and 3f was evaluated following the literature method. Ascorbic acid (Sigma Aldrich, Saint Louis, Missouri, USA) was used as a positive control. The test compounds and controls at various concentrations ranging from (0 µM to 40 µM) in DMSO were mixed with a solution of DPPH (0.20 mM) in methanol. The mixtures were incubated in the dark for 45 min and the absorbances were recorded at 512 nm using Varioskan flash microplate spectrophotometer reader. All tests and analyses were run in triplicate and averaged. The inhibition was calculated in terms of percentage using the formula below:(5) DPPH radical scavenged (%)=AbC−AbS/AbC×100, where AbC is absorbance of control and AbS the absorbance of the test sample.

BChE [2] = molecular target: T1, BChE (Homo sapiens, UniProt P06276); assay: biochemical; conditions: for IC50: Ellman's method, triplicate; for SI AChE/BChE: Selectivity index IC50 (AChE)/IC50 (BChE)
T1 construct: purchased cloud-clone corp., purchased through BIOCOM Africa (Pty) Ltd. RPC348Hu0 2_100
Method: The mixtures were incubated for 15 min at RT. The reaction was initiated by adding of 10 µL of mixture solution of 5 mM 5,50-dithio-bis-nitrobenzoic acid (DTNB) in 50 mM tris buffer (pH 7.7) and 10 µL acetylthiocholine (ASCh; 5 mM) in 50 mM tris buffer, pH 7.7 into the wells containing the mixtures. The hydrolysis of ASCh was determined by monitoring the formation of the yellow 5-thio-2-nitrobenzoate anion resulting from reaction of DTNB with thiocholines (SCh).
The IC50 values were determined graphically from inhibition curves (inhibitor concentration and absorbance) using the graph pad prism.

AChE [3] = molecular target: T2, AChE (Homo sapiens, UniProt P22303); assay: biochemical; conditions: for IC50: Ellman's method, triplicate, read-out: IC50 (µM) AChE; for SI BChE/AChE: Selectivity index IC50 (BChE)/IC50 (AChE)
T2 construct: purchased BL, purchased through BIOCOM Africa (Pty) Ltd. 768104

BChE [4] = molecular target: T1, BChE; assay: Kinetic studies against BChE (Lineweaver–Burk and Dixon plots); type: biochemical; conditions: for Ki: Dixon plots; for mode of inhibition against BChE: Lineweaver–Burk and Dixon plots
Method: (§1) Compounds 2f, 2b, 2f, 3b, 3d and 3f were selected for the kinetic studies with substrate concentrations 0.1, 0.5, 2. 5 and 5 µM for ChEs following procedures described in our previous investigation. The Lineweaver–Burk plots (plots of the inverse of velocity (1/v) against the inverse of the substrate concentration (1/[S])) were used to ascertain the mode of inhibition of these compounds.

AChE [5] = molecular target: T2, AChE; assay: Kinetic studies against AChE (Lineweaver–Burk and Dixon plots); type: biochemical; conditions: for Ki: Dixon plots; for mode of inhibition against AChE: Lineweaver–Burk and Dixon plots
Method: as §1

human recombinant BACE-1 = molecular target: T3, human recombinant BACE-1 (Homo sapiens, UniProt P56817); assay: β-secretase FRET inhibitory assay; type: biochemical; conditions: triplicate
T3 construct: purchased Pan Vera; host or cells: baculovirus-expressed

[6] = tested on: breast cancer cell line MCF-7; assay: MTT cytotoxicity assay, MCF-7; type: cell-based; conditions: Homo sapiens, MCF7, 24 h, read-out: IC50 against MCF-7 cancer cell line
Method: Briefly, the cells were seeded in 96-well plate at a density of 20 × 10^3 cells per well and then incubated at 37 °C in 5% CO2 to allow cell attachment. […] An equal volume of medium was used as the control treatment. After treatment for 24 h, 10 μL MTT (5 mg/mL) was added to each well and the plate was further incubated for 4 h later. The supernatant was removed and 100 μL of DMSO was added to each well to dissolve the resulting formazan crystals. The absorbance was read at 570 nm using the Varioskan flash microplate spectrophotometer reader. The percentages of cell viability were used to determine the IC50 values.

T2 sequence (P22303 32-614): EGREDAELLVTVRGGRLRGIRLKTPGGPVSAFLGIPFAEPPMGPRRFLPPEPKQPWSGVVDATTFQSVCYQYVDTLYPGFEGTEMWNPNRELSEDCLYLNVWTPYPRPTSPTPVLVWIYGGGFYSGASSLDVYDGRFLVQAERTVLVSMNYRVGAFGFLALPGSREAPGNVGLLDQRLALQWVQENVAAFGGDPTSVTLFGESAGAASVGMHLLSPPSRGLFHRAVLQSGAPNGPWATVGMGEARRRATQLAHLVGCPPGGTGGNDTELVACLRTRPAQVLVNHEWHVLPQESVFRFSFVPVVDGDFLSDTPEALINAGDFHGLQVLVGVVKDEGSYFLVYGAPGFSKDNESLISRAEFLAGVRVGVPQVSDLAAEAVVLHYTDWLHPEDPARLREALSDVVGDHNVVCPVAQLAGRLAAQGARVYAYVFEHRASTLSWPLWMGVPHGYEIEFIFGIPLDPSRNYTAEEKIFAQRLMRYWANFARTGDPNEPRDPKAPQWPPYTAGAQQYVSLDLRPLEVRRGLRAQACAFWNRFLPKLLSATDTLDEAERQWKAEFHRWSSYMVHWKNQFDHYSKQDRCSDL
T1 sequence (P06276 29-602): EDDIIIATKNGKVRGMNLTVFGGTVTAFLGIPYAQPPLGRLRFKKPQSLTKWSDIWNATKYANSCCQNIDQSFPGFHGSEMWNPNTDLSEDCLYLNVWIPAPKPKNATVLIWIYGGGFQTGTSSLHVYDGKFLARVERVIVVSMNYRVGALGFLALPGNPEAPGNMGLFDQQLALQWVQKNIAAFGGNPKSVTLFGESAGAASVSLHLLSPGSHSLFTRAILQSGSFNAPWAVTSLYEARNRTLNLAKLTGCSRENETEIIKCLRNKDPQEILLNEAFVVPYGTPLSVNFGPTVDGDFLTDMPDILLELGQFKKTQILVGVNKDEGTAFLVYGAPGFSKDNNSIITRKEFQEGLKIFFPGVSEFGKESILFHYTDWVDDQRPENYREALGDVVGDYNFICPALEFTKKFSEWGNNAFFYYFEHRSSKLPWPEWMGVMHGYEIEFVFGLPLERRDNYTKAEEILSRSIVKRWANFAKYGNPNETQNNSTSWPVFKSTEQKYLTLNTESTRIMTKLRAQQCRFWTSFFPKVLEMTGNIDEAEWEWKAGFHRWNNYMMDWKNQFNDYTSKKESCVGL
T3 sequence (P56817 46-501): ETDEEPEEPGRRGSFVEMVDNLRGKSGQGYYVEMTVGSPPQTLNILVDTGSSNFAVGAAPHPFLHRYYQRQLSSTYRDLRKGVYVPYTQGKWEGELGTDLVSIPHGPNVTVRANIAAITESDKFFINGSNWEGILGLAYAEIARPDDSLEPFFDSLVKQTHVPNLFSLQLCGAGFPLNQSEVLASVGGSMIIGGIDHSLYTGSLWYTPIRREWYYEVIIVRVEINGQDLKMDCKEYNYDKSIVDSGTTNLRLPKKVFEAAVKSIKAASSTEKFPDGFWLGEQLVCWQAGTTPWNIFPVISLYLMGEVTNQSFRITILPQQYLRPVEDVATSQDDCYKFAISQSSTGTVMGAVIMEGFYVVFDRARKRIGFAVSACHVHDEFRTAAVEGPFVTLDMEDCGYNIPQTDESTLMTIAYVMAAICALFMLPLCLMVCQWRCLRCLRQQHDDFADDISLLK

| Compound | IC50 [1] | IC50 (BChE [2]) | SI AChE/BChE (BChE [2]) | IC50 (AChE [3]) | SI BChE/AChE (AChE [3]) | Ki (BChE [4]) | mode of inhibition against BChE (BChE [4]) | Ki (AChE [5]) | mode of inhibition against AChE (AChE [5]) | IC50 (human recombinant BACE-1) | Vmax against BChE (BChE [4]; Lineweaver–Burk plots, substrate 0–5 µM) | IC50 [6] |
| --- | --- | --- | --- | --- | --- | --- | --- | --- | --- | --- | --- | --- |
| O=C1O[C@H]([C@@H](O)CO)C(O)=C1O [Ascorbic acid, reference compound] | 4.8 ± 0.01 µM |  |  |  |  |  |  |  |  |  |  |  |
| O=Cc1coc2cc3oc(-c4ccccc4)cc3cc2c1=O [Compound 2a, 5-Oxo-2-phenyl-5H-furo[3,2-g]chromene-6-carbaldehyde] |  | 12.3 ± 0.02 µM | 2.33 | 28.6 ± 0.01 µM | 0.43 |  |  |  |  |  |  |  |
| O=Cc1coc2cc3oc(-c4cccc(F)c4)cc3cc2c1=O [Compound 2b, 2-(3-Fluorophenyl)-5-oxo-5H-furo[3,2-g]chromene-6-carbaldehyde] | 7.4 ± 0.01 µM | 6.4 ± 0.04 µM | 0.84 | 5.4 ± 0.05 µM | 1.19 | 1.7 ± 0.01 µM | non-competitive | 1.1 ± 0.02 µM | non-competitive | 21.6 ± 0.01 µM |  |  |
| O=Cc1coc2cc3oc(-c4ccc(F)cc4)cc3cc2c1=O [Compound 2c, 2-(4-Fluorophenyl)-5-oxo-5H-furo[3,2-g]chromene-6-carbaldehyde] |  | 15.7 ± 0.02 µM | 0.97 | 15.3 ± 0.01 µM | 1.03 |  |  |  |  |  |  |  |
| O=Cc1coc2cc3oc(-c4cccc(Cl)c4)cc3cc2c1=O [Compound 2d, 2-(3-Chlorophenyl)-5-oxo-5H-furo[3,2-g]chromene-6-carbaldehyde] |  | 21.6 ± 0.01 µM | 1.54 | 33.4 ± 0.03 µM | 0.65 |  |  |  |  |  |  |  |
| O=Cc1coc2cc3oc(-c4ccc(Cl)cc4)cc3cc2c1=O [Compound 2e, 2-(4-Chlorophenyl)-5-oxo-5H-furo[3,2-g]chromene-6-carbaldehyde] |  | 14 ± 0.04 µM | 1.61 | 21.8 ± 0.03 µM |  |  |  |  |  |  |  |  |
| COc1cc(OC)cc(-c2cc3cc4c(=O)c(C=O)coc4cc3o2)c1 [Compound 2g, 2-(3,5-Dimethoxyphenyl)-5-oxo-5H-furo[3,2-g]chromene-6-carbaldehyde] |  | 41.2 ± 0.03 µM | 0.26 | 10.8 ± 0.02 µM | 3.81 |  |  |  |  |  |  |  |
| Cc1ccc(-c2cc3cc4c(=O)c(C=O)coc4cc3o2)cc1 [Compound 2h, 5-Oxo-2-(p-tolyl)-5H-furo[3,2-g]chromene-6-carbaldehyde] |  | 28.1 ± 0.03 µM | 0.46 | 12.9 ± 0.01 µM | 2.18 |  |  |  |  |  |  |  |
| O=Cc1coc2cc3oc(C4=CCCCC4)cc3cc2c1=O [Compound 2i, 2-(Cyclohex-1-en-1-yl)-5-oxo-5H-furo[3,2-g]chromene-6-carbaldehyde] |  | 34.8 ± 0.02 µM | 0.65 | 22.6 ± 0.03 µM | 1.54 |  |  |  |  |  |  |  |
| O=c1c(C=NNc2ccc(C(F)(F)F)cc2)coc2cc3oc(-c4ccccc4)cc3cc12 [Compound 3a, 2-Phenyl-6-[(4-trifluoromethylphenyl)hydrazonomethyl]furo[3,2-g]chromen-5-one] |  | 26.3 ± 0.02 µM | 0.70 | 18.4 ± 0.01 µM | 1.43 |  |  |  |  |  |  |  |
| O=c1c(C=NNc2ccc(C(F)(F)F)cc2)coc2cc3oc(-c4cccc(F)c4)cc3cc12 [Compound 3b, 2-(3-Fluorophenyl)-6-[(4-trifluoromethylphenyl)hydrazonomethyl]furo[3,2-g]chromen-5-one] | 21.8 ± 0.02 µM | 11.2 ± 0.02 µM | 0.68 | 7.6 ± 0.03 µM | 1.47 | 6.1 ± 0.02 µM | non-competitive | 0.58 ± 0.04 µM | non-competitive | 17.3 ± 0.03 µM |  |  |
| O=c1c(C=NNc2ccc(C(F)(F)F)cc2)coc2cc3oc(-c4ccc(F)cc4)cc3cc12 [Compound 3c, 2-(4-Fluorophenyl)-6-[(4-trifluoromethylphenyl)hydrazonomethyl]furo[3,2-g]chromen-5-one] |  | 14.1 ± 0.01 µM | 1.49 | 21.2 ± 0.01 µM | 0.67 |  |  |  |  |  |  |  |
| O=c1c(C=NNc2ccc(C(F)(F)F)cc2)coc2cc3oc(-c4cccc(Cl)c4)cc3cc12 [Compound 3d, 2-(3-Chlorophenyl)-6-[(4-trifluoromethylphenyl)hydrazonomethyl]furo[3,2-g]chromen-5-one] | 20.9 ± 0.03 µM | 7.2 ± 0.03 µM | 2.56 | 18.3 ± 0.04 µM | 0.39 | 0.85 ± 0.01 µM | non-competitive | 2.5 ± 0.01 µM | non-competitive | 32.8 ± 0.02 µM |  |  |
| O=c1c(C=NNc2ccc(C(F)(F)F)cc2)coc2cc3oc(-c4ccc(Cl)cc4)cc3cc12 [Compound 3e, 2-(4-Chlorophenyl)-6-[(4-trifluoromethylphenyl)hydrazonomethyl]furo[3,2-g]chromen-5-one] |  | 24.6 ± 0.02 µM | 0.52 | 12.9 ± 0.02 µM | 1.91 |  |  |  |  |  |  |  |
| COc1ccc(-c2cc3cc4c(=O)c(C=NNc5ccc(C(F)(F)F)cc5)coc4cc3o2)cc1 [Compound 3f, 2-(4-Methoxyphenyl)-6-[(4-trifluoromethylphenyl)hydrazonomethyl]furo[3,2-g]chromen-5-one] | 23.9 ± 0.04 µM | 9.6 ± 0.05 µM | 0.56 | 5.4 ± 0.02 µM | 1.78 | 5.4 ± 0.04 µM | competitive | 8.16 ± 0.02 µM | non-competitive | 25.3 ± 0.04 µM | 0.013 ± 0.02 |  |
| COc1cc(OC)cc(-c2cc3cc4c(=O)c(C=NNc5ccc(C(F)(F)F)cc5)coc4cc3o2)c1 [Compound 3g, 2-(3,5-Dimethoxyphenyl)-6-[(4-trifluoromethylphenyl)hydrazonomethyl]furo[3,2-g]chromen-5-one] |  | 31.2 ± 0.04 µM | 1.12 | 34.9 ± 0.01 µM | 0.89 |  |  |  |  |  |  |  |
| Cc1ccc(-c2cc3cc4c(=O)c(C=NNc5ccc(C(F)(F)F)cc5)coc4cc3o2)cc1 [Compound 3h, 2-(4-p-Tolyl)-6-[(4-trifluoromethylphenyl)hydrazonomethyl]furo[3,2-g]chromen-5-one] |  | 35.4 ± 0.015 µM | 0.30 | 10.5 ± 0.03 µM | 3.37 |  |  |  |  |  |  |  |
| O=c1c(C=NNc2ccc(C(F)(F)F)cc2)coc2cc3oc(C4=CCCCC4)cc3cc12 [Compound 3i, 2-(Cyclohex-1-en-1-yl)-6-((2-(4-(trifluoromethyl)phenyl)hydrazono)methyl)-5H-furo[3,2-g]chromen-5-one] |  | 30.9 ± 0.02 µM | 0.96 | 29.8 ± 0.01 µM | 1.04 |  |  |  |  |  |  |  |
| COc1cccc2c1C(=O)c1c(O)c3c(c(O)c1C2=O)C[C@@](O)(C(=O)CO)C[C@@H]3O[C@H]1C[C@H](N)[C@H](O)[C@H](C)O1 [doxorubicin, doxorubicin hydrochloride, reference compound] |  |  |  |  |  |  |  |  |  |  |  | 1.59 ± 0.01 µM |
